Target: human NaV subtype, like NaV 1.7 (Homo sapiens, UniProt Q15858)
Experiment: E-VIPR optical membrane potential assay with electrical stimulation
Format: cell-based
Conditions: active against one or more sodium channels; Table 3 does not name the assay or NaV subtype; read-out: Binned Activity Data (IC50)

Chain of human NaV subtype, like NaV 1.7 (Q15858 whole entry): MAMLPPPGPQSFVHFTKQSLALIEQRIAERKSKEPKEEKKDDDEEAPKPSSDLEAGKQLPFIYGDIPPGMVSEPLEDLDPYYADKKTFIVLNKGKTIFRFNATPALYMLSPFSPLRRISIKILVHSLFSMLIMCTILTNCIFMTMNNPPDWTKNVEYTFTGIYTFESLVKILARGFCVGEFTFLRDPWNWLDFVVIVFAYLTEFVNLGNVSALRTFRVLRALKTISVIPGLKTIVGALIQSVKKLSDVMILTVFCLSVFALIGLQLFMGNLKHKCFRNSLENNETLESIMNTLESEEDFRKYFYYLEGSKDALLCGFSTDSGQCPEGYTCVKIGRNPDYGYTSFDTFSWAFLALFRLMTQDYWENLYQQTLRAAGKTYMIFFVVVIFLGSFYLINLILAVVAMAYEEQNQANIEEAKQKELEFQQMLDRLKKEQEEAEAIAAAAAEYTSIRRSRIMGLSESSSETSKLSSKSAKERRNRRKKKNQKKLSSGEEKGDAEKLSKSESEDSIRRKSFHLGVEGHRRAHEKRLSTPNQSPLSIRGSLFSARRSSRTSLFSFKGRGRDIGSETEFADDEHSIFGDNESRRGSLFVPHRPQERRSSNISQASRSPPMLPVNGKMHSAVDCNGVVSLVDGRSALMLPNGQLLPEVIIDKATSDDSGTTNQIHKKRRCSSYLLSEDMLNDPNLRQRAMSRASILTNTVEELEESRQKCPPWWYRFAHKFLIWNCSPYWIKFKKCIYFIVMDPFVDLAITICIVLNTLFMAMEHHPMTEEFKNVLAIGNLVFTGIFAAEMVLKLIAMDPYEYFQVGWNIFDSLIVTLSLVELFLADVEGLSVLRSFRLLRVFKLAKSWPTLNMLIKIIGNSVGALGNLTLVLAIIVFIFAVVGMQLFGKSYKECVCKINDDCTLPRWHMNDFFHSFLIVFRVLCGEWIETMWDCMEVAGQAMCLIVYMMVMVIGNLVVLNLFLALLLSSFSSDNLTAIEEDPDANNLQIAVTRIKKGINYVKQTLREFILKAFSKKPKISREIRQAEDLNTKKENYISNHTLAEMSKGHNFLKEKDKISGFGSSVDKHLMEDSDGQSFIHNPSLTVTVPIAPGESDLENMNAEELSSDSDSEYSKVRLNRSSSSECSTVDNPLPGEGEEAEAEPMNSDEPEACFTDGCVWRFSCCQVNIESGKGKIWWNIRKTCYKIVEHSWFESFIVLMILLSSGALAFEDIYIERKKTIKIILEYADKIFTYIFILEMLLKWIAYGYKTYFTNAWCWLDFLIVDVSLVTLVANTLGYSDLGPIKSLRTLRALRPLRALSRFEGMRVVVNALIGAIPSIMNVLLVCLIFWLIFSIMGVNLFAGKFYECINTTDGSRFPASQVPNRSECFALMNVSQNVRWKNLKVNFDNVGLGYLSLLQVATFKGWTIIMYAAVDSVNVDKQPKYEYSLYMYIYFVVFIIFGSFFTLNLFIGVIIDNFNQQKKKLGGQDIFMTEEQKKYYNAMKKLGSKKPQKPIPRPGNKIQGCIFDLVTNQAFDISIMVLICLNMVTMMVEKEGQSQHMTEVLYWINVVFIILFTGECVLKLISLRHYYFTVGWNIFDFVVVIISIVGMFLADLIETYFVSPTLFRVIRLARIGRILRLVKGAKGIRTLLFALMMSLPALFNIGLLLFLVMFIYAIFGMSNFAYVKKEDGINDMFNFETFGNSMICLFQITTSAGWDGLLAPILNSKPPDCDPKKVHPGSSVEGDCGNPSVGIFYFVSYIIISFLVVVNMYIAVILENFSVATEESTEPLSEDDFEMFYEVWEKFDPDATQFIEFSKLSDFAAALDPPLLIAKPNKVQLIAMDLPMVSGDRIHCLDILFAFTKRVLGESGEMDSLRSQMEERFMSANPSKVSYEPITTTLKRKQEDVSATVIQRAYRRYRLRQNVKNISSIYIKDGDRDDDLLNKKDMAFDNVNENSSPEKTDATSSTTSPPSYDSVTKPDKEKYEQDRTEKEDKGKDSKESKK

SMILES | IC50 [nM]
CN1CCn2c(C(=O)C(C)(C)C)ccc2C12CCN(C(=O)c1ccc(S(=O)(=O)NC3CC3)cc1)CC2 [Compound 274] | ≤ 2000
Cc1cc(C(=O)N2CCC3(CC2)c2ccc(C(F)(F)F)n2CCN3C)ccc1OCCO [Compound 335] | ≤ 2000
CN1CCn2c(ccc2S(C)(=O)=O)C12CCN(C(=O)c1ccc(C3CCCCC3)cc1)CC2 [Compound 302] | 2000 to 5000
Cc1cc(C(=O)N2CCC3(CC2)c2ccc(C(F)(F)F)n2CCN3C)ccc1S(=O)(=O)NC1CC1 [Compound 28] | ≤ 2000
CCCc1ccc(C(=O)N2CCC3(CC2)c2ccc(C(C)=O)n2CCN3C)cc1 [Compound 292] | > 5000
CC(=O)c1ccc2n1CCN(C)C21CCN(C(=O)c2ccc(C(OCC(F)(F)F)OCC(F)(F)F)c(Cl)c2)CC1 [Compound 739] | > 5000
CN1CCn2c(ccc2C(F)(F)C(F)(F)F)C12CCN(C(=O)c1ccc(C3(O)CCCC3)cc1)CC2 [Compound 587] | ≤ 2000
CC(=O)c1ccc2n1CC(C)(C)NC21CCN(C(=O)c2ccc(OC(C)C)cc2F)CC1 [Compound 286] | ≤ 2000
Cc1nc(C(=O)N2CCC3(CC2)NC(C)(C)Cn2c(C(=O)C(F)(F)F)ccc23)ccc1OC(C)C [Compound 433] | ≤ 2000
Cc1cc(C(=O)N2CCC3(CC2)c2ccc(C(F)(F)F)n2CCN3C)ccc1S(=O)(=O)C(C)C [Compound 2] | ≤ 2000
CCCN(CCC)S(=O)(=O)c1ccc(C(=O)N2CCC3(CC2)c2ccc(Cl)n2CCN3C)cc1 [Compound 479] | 2000 to 5000
CN1CCn2c(C(F)(F)F)cc(Cl)c2C12CCN(C(=O)c1ccc(COCC(F)(F)F)cc1)CC2 [Compound 75] | ≤ 2000
Cc1cc(C(=O)N2CCC3(CC2)c2cc(C(=O)C(F)(F)F)cn2C(C)(C)CN3C)ccc1OC(C)C [Compound 231] | > 5000
CC(C)Nc1ccnc2c(C(=O)N3CCC4(CC3)c3ccc(C(F)(F)F)n3CCN4C)cnn12 [Compound 162] | ≤ 2000
CCCOc1ccc(C(=O)N2CCC3(CC2)c2c(F)cc(C(F)(F)F)n2CCN3C)cc1OC [Compound 397] | ≤ 2000
COc1cc(C(=O)N2CCC3(CC2)NC(C)(C)Cn2c(C(=O)C(F)(F)F)ccc23)ccc1-c1ccccc1 [Compound 589] | ≤ 2000
COc1ncc(F)cc1C(=O)N1CCC2(CC1)c1ccc(C(F)(F)F)n1CCN2C [Compound 605] | > 5000
CN1CCn2c(C(=O)C(F)(F)F)ccc2C12CCN(C(=O)c1ccc(S(=O)(=O)C3CC3)cc1)CC2 [Compound 496] | 2000 to 5000
CC(C)C(=O)c1ccc2n1CCN(C)C21CCN(C(=O)c2ccc(COCCC(F)(F)F)cc2)CC1 [Compound 359] | ≤ 2000
C[C@H]1Cn2c(C(=O)C(F)(F)F)ccc2C2(CCN(C(=O)c3ccc(OCC(F)(F)F)cc3)CC2)N1C [Compound 463] | ≤ 2000
CC(C)Oc1ccc(C(=O)N2CCC3(CC2)NCCn2c(C(F)(F)F)ccc23)cc1Cl [Compound 135] | ≤ 2000
COc1ccc(C(=O)N2CCC3(CC2)c2ccc(C(F)(F)F)n2CCN3C)cc1 [Compound 351] | > 5000
Cc1cc(C(=O)N2CCC3(CC2)c2ccc(C(F)(F)F)n2CCN3C)ccc1S(=O)(=O)N(C)C [Compound 347] | ≤ 2000
CC(=O)c1ccc2n1CCN(C)C21CCN(C(=O)c2ccc(C(C)(C)O)c(F)c2)CC1 [Compound 703] | > 5000
Cc1cccc(C(=O)N2CCC3(CC2)c2ccc(C(F)(F)F)n2CCN3C)c1 [Compound 109] | > 5000
COc1ccc(C(=O)N2CCC3(CC2)c2ccc(C(=O)C(C)(C)C)n2CCN3C)cc1C(F)(F)F [Compound 566] | ≤ 2000
CCOc1ccc(C(=O)N2CCC3(CC2)NC(C)(C)Cn2c(C(=O)C(F)(F)F)ccc23)cc1Cl [Compound 636] | ≤ 2000
CN1CCn2c(C(=O)C3CC3)ccc2C12CCN(C(=O)c1ccc(C3CCCCC3)cc1)CC2 [Compound 66] | ≤ 2000
CCOc1ccc(C(=O)N2CCC3(CC2)c2ccc(Cl)n2CCN3C)cc1OCC [Compound 86] | > 5000
COc1ccc(C(=O)N2CCC3(CC2)NC(C)(C)Cn2c(C(C)=O)ccc23)cc1C [Compound 613] | > 5000

From patent US8916565B2, “Pyrrolopyrazine-spirocyclic piperidine amides as modulators of ion channels” (priority 2011, dated 2014)
